# Results reported in patent publication US7790727B2, “Benzenesulfonanilide compounds suitable for treating disorders that respond to modulation of the serotonin 5-HT6 receptor” (Abbott GmbH & Co. KG, priority 2007, dated 2010).
# Counter-ions that a name gives are not always drawn.
# Target: T1, h-5-HT6 receptor (Homo sapiens, UniProt P50406)
# T1 construct: expressed in transfected cells
# Test: 5-HT6 receptor binding assay (displacement of [3H]-LSD)
# Settings: not given
# Procedure: Displacement of radioligands binding to the following cloned human receptors
# 1. Preparation of Membranes by Ultrasonic Treatment and Differential Centrifugation
# Cells from stable clonal cell lines expressing the corresponding receptor (5-HT6, α1-adrenergic, dopamine D2 or histamine H1 receptors) were washed with PBS (w/o Ca^++, Mg^++) and harvested in PBS with 0.02% EDTA. The cells were collected by centrifugation at 500 g for 10 min. at 4° C., washed with PBS and centrifuged (500 g, 10 min. 4° C.). The pellets were stored at −80° C. until use. F or membrane preparation, the thawed cell pellet was resuspended in ice-cold sucrose buffer (0.25 M sucrose, 10 mM Hepes (pH 7.4), 1 mM Phenylmethylsulfonyl fluoride (PMSF) in DMSO, 5 μg/ml Pepstatin-A, 3 mM EDTA, 0.025% Bacitracin) and homogenized with a Branson Sonifier W-250 (Settings: Timer 4; Output Control 3; Duty Cycle constant; 2 to 3 cycles). Cell disruption was checked with the aid of a microscope. Remaining unbroken cells were pelleted at 1.000 g for 10 min. at 4° C. The sucrose buffer supernatant was then centrifuged at 60.000 g for 1 h at 4° C. (Beckman Ultrazentrifuge XL 80). The pellet was resuspended in 30 ml ice-cold Tris buffer (20 mM TRIS (pH 7.4), 5 μg/ml Pepstatin A, 0.1 mM PMSF, 3 mM EDTA) by pipetting through a 10 ml serological pipet and centrifuged for 1 h at 4° C. at 60.000 g. A final resuspension was performed in a small volume of ice-cold Tris buffer (see above) by pressing through a serological pipet followed by ultrasonic treatment with a Branson Sonifier W-250 (Settings: Timer 1; Output Control 3; Duty Cycle constant; 1 cycle). Protein concentration was determined (BCA-Kit; Pierce) and aliquots stored at −80° C. or in liquid nitrogen for long-term storage.
# 2. Receptor Binding Experiments
# All receptor binding experiments were carried out in the corresponding assay buffer in a total volume of 200 μl in the presence of various concentrations of test compound (10^−5 M to 10^−9 M, tenfold serial dilution, duplicate determinations). The assays were terminated by filtration on polyethylenimine (PEI 0.1% or 0.3%) presoaked Packard Unifilter Plates (GF/C or GF/B) with a Tomtec Machill U 96 well-plate harvester. After the plates had been dried for 2 h at 55° C. in a drying chamber scin tillation cocktail (BetaPlate Scint; PerkinElmer) was added. Radioactivity was measured in a Microbeta Trilux two hours after the addition of the scintillation mixture. Data derived from liquid scintillation counting were analysed by iterative non-linear regression analysis with the use of the Statistical Analysis System (SAS): a program similar to “LIGAND” as described by Munson and Rodbard (Analytical Biochemistry 107, 220-239 (1980).
# a) 5-HT6 Receptor Binding Assay
# HEK293 cells stably expressing the h-5-HT6 receptor (NCBI Reference Sequence XM 001435) were cultured in RPMI1640 medium supplemented with 25 mM HEPES, 10% fetal calf serum and 1-2 mM glutamine. The membrane preparation was performed as described in section 1. […] Non-specific binding was defined with 1 μM methiothepin. The binding reaction was carried out for 3.5 h at room temperature. During the incubation, the plates were shaken on a plate shaker at 100 rpm and terminated by filtration on Packard Unifilter GF/C (0.1% PEI) plates, followed by 2 wash cycles with ice-cold 50 mM Tris-HCl, 5 mM CaCl2.
# Data derived from liquid scintillation counting were analyzed by iterative non-linear regression analysis with the use of the Statistical Analysis System (SAS): a program similar to “LIGAND” as described by Munson and Rodbard (Anal. Biochem. 1980, 107, 220-239). Fitting was performed according to formulae described by Feldman (Anal. Biochem. 1972, 48, 317-338). IC50, nH and Ki values were expressed as geometrical mean.
# T1 sequence (P50406 whole entry): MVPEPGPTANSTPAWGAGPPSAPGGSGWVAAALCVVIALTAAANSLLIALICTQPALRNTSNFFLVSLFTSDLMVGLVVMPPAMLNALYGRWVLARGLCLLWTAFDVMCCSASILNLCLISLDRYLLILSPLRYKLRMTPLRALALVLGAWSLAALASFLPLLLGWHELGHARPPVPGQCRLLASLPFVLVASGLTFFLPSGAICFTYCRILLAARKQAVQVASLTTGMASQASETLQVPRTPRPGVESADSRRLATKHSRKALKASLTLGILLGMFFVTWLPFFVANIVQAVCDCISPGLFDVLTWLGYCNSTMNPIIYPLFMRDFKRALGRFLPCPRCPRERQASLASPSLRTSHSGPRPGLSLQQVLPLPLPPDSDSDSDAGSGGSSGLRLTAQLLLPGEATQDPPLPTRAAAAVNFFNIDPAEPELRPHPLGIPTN
row,Compound,Ki
1,"O=S(=O)(Nc1ccc(F)c(N2CCNCC2)c1)c1cccc(OC(F)F)c1 [Example 26, 3-Difluoromethoxy-N-(4-fluoro-3-piperazin-1-yl-phenyl)-benzenesulfonamide Hydrochloride]",< 50 nM

# Same assay, conditions: membranes of HEK293 cells expressing h-5-HT6 receptor, 1 nM [3H]-LSD; read-out: Ki(5HT6)
row,Ki,Compound
1,< 20 nM,"COc1ccc(NS(=O)(=O)c2ccc(OC(F)F)cc2)cc1N1CCN(C)CC1 [Example 3, 4-Difluoromethoxy-N-[4-methoxy-3-(4-methyl-piperazin-1-yl)-phenyl]-benzenesulfonamide]"
2,< 10 nM,"COc1ccc(NS(=O)(=O)c2cc(OC(F)F)ccc2OC)cc1N1CCNCC1 [Example 8, 5-Difluoromethoxy-2-methoxy-N-(4-methoxy-3-piperazin-1-yl-phenyl)-benzene-sulfonamide Hydrochloride]"
3,< 20 nM,"COc1ccc(N(C)S(=O)(=O)c2cccc(OC(F)F)c2)cc1N1CCNCC1 [Example 2, 3-Difluoromethoxy-N-(4-methoxy-3-piperazin-1-yl-phenyl)-N-methyl-benzene-sulfonamide Hydrochloride]"
4,< 10 nM,"COc1ccc(S(=O)(=O)Nc2ccc(OC)c(N3CCNCC3)c2)cc1OC(F)F [Example 13, 3-Difluoromethoxy-4-methoxy-N-(4-methoxy-3-piperazin-1-yl-phenyl)-benzenesulfonamide Hydrochloride]"
5,< 50 nM,"COc1c(F)cc(NS(=O)(=O)c2cccc(OC(F)F)c2)cc1N1CCNCC1 [Example 9, 3-Difluoromethoxy-N-(3-fluoro-4-methoxy-5-piperazin-1-yl-phenyl)-benzenesulfonamide Hydrochloride]"
6,< 20 nM,"O=S(=O)(Nc1ccc(OC(F)(F)F)c(N2CCNCC2)c1)c1cccc(OC(F)F)c1 [Example 6, 3-Difluoromethoxy-N-(3-piperazin-1-yl-4-trifluoromethoxy-phenyl)-benzenesulfonamide]"
7,< 50 nM,"COc1ccc(NS(=O)(=O)c2ccc(OC(F)F)cc2)cc1N1CCNCC1 [Example 15, 4-Difluoromethoxy-N-(4-methoxy-3-piperazin-1-yl-phenyl)-benzenesulfonamide Hydrochloride]"
8,< 50 nM,"COc1cc(Cl)c(NS(=O)(=O)c2cccc(OC(F)F)c2)cc1N1CCNCC1 [Example 19, N-(2-Chloro-4-methoxy-5-piperazin-1-yl-phenyl)-3-difluoromethoxy-benzene-sulfonamide Trifluoroacetate]"
9,< 10 nM,"COc1ccc(NS(=O)(=O)c2cccc(OC(F)F)c2)cc1N1CCNCC1 [Example 1, 3-Difluoromethoxy-N-(4-methoxy-3-piperazin-1-yl-phenyl)-benzenesulfonamide Hydrochloride]"
10,< 10 nM,"COc1ccc(NS(=O)(=O)c2cccc(OC(F)F)c2)cc1N1CCN(C)CC1 [Example 25, 3-Difluoromethoxy-N-[4-methoxy-3-(4-methyl-piperazin-1-yl)-phenyl]-benzenesulfonamide]"
11,< 50 nM,"COc1ccc(S(=O)(=O)Nc2cccc(N3CCNCC3)c2)cc1OC(F)F [Example 31, 3-Difluoromethoxy-4-methoxy-N-(3-piperazin-1-yl-phenyl)-benzenesulfonamide Trifluoroacetate]"
12,< 10 nM,"O=S(=O)(Nc1ccc(OCCF)c(N2CCNCC2)c1)c1cccc(OC(F)F)c1 [Example 11, 3-Difluoromethoxy-N-[4-(2-fluoroethoxy)-3-piperazin-1-yl-phenyl]-benzenesulfonamide Hydrochloride]"

# The remaining lines, values behind:
row,Compound,Ki
1,"O=S(=O)(Nc1ccc(OC(F)F)c(N2CCNCC2)c1)c1ccccc1OC(F)F [Example 7, 2-Difluoromethoxy-N-(3-piperazin-1-yl-4-difluoromethoxy-phenyl)-benzenesulfonamide Trifluoroacetate]",< 50 nM
2,"COc1ccc(N(CCCF)S(=O)(=O)c2cccc(OC(F)F)c2)cc1N1CCNCC1 [Example 17, 3-Difluoromethoxy-N-(3-fluoropropyl)-N-(4-methoxy-3-piperazin-1-yl-phenyl)-benzenesulfonamide Hydrochloride]",< 50 nM
3,"O=S(=O)(Nc1ccc(F)c(N2CCNCC2)c1)c1cccc2c1OC(F)(F)O2 [Example 27, 2,2-Difluoro-benzo[1,3]dioxole-4-sulfonic acid (4-fluoro-3-piperazin-1-yl-phenyl)-amide Hydrochloride]",< 50 nM
4,"CCN(c1ccc(OC)c(N2CCNCC2)c1)S(=O)(=O)c1cccc2c1OC(F)(F)O2 [Example 22, 2,2-Difluoro-benzo[1,3]dioxole-4-sulfonic acid ethyl-(4-methoxy-3-piperazin-1-yl-phenyl)-amide Hydrochloride]",< 50 nM
5,"O=S(=O)(Nc1ccc(OCCF)c(N2CCNCC2)c1)c1cccc2c1OC(F)(F)O2 [Example 12, 2,2-Difluoro-benzo[1,3]dioxole-4-sulfonic acid (4-(2-fluoroethoxy)-5-piperazin-1-yl-phenyl)-amide Hydrochloride]",< 50 nM
6,"COc1ccc(NS(=O)(=O)c2cccc3c2OC(F)(F)O3)cc1N1CCNCC1 [Example 4, 2,2-Difluoro-benzo[1,3]dioxole-4-sulfonic Acid (4-methoxy-3-piperazin-1-yl-phenyl)-amide Hydrochloride]",< 10 nM
7,"COc1ccc(N(C)S(=O)(=O)c2cccc3c2OC(F)(F)O3)cc1N1CCN(C)CC1 [Example 21, 2,2-Difluoro-benzo[1,3]dioxole-4-sulfonic acid [4-methoxy-3-(4-methyl-piperazin-1-yl)-phenyl]-methyl-amide Hydrochloride]",< 50 nM
8,"O=S(=O)(Nc1cccc(N2CCNCC2)c1)c1cccc2c1OC(F)(F)O2 [Example 29, 2,2-Difluoro-benzo[1,3]dioxole-4-sulfonic acid (3-piperazin-1-yl-phenyl)-amide Hydrochloride]",< 10 nM
9,"COc1ccc(N(C)S(=O)(=O)c2cccc(OC(F)F)c2)cc1N1CCN(C)CC1 [Example 24, 3-Difluoromethoxy-N-[4-methoxy-3-(4-methyl-piperazin-1-yl)-phenyl]-N-methyl-benzenesulfonamide Hydrochloride]",< 10 nM
10,"CN1CCN(c2cc(NS(=O)(=O)c3cccc(OC(F)F)c3)ccc2OC(F)(F)F)CC1 [Example 20, 3-Difluoromethoxy-N-[3-(4-methyl-piperazin-1-yl)-4-trifluoromethoxy-phenyl]-benzenesulfonamide Hydrochloride]",< 10 nM
11,"CCN(c1ccc(OC)c(N2CCN(C)CC2)c1)S(=O)(=O)c1cccc(OC(F)F)c1 [Example 16, 3-Difluoromethoxy-N-ethyl-N-[4-methoxy-3-(4-methyl-piperazin-1-yl)-phenyl]-benzenesulfonamide Hydrochloride]",< 10 nM
12,"CCCN(c1ccc(OC)c(N2CCNCC2)c1)S(=O)(=O)c1cccc(OC(F)F)c1 [Example 18, 3-Difluoromethoxy-N-(4-methoxy-3-piperazin-1-yl-phenyl)-N-propyl-benzene-sulfonamide Hydrochloride]",< 50 nM
13,"COc1c(F)cc(NS(=O)(=O)c2cccc3c2OC(F)(F)O3)cc1N1CCNCC1 [Example 10, 2,2-Difluoro-benzo[1,3]dioxole-4-sulfonic acid (3-fluoro-4-methoxy-5-piperazin-1-yl-phenyl)-amide Hydrochloride]",< 10 nM
14,"COc1ccc(N(C)S(=O)(=O)c2cccc3c2OC(F)(F)O3)cc1N1CCNCC1 [Example 23, 2,2-Difluoro-benzo[1,3]dioxole-4-sulfonic acid methyl-(4-methoxy-3-piperazin-1-yl-phenyl)-amide Hydrochloride]",< 50 nM
15,"O=S(=O)(Nc1cccc(N2CCNCC2)c1)c1cccc(OC(F)F)c1 [Example 28, 3-Difluoromethoxy-N-(3-piperazin-1-yl-phenyl)-benzenesulfonamide Hydrochloride]",< 50 nM
